Data as given in PMC10449621, “Engineering cellular communication between light-activated synthetic cells and bacteria” (Nature Chemical Biology, 2023).
“And” between values parts separate entries of the source, which are not always exact repeats. Equal entries are not always repeated.

What was measured:
Format in all cases: cell-based, E. coli XL10-Gold
[1] = test system: BjaRS107R (B0033|ATG) receiver cells; experiment: IV-HSL biosynthesis by BjaI-expressing synthetic cells (GUVs), quantified with receiver cells; details: 10 nM IV-HSL control, Dilution -, sheet 4d
[2] = test system: BjaRS107R (B0034|CTG) receiver cells; experiment: IV-HSL biosynthesis by BjaI in bulk CFPS reactions, quantified with receiver cells; details: 10 nM
Experimental: We first validated bjaI expression using bulk CFPS reactions containing (^35S)-methionine to visualize the newly synthesized protein. The full-length BjaI protein (25 kDa) was successfully translated, and its expression was not influenced by the presence of SAM and IV-CoA (Fig. 4b). To establish whether the BjaI was enzymatically active, CFPS reactions containing 80 µM IV-CoA and 300 µM SAM were incubated at 37 °C for 5 h, and then serially diluted and incubated with BjaRS107R (B0034|CTG) receiver cells. Indeed, IV-HSL was successfully synthesized within the CFPS reactions as the reaction mixture containing the complete set of components (bjaI DNA + SAM + IV-CoA) fully activated gfp expression in the receivers, while no fluorescence output was observed from CFPS reactions containing SAM and IV-CoA, but without bjaI DNA template (Fig. 4c,d). […] Similarly, on transferring this system inside GUVs, BjaI-producing synthetic cells also synthesized sufficient IV-HSL to fully activate gfp expression in BjaRS107R (B0033|ATG) receiver cells. […] The loss in specific activity between CFPS performed in bulk compared to inside GUVs was attributed to the loss of inner solution during emulsion phase transfer and when the GUVs ruptured, less efficient CFPS in GUVs compared to in bulk, and absence of gene expression in some GUVs.
In total, 3 µl CFPS reactions were prepared using PURExpress with 0.8 U µl^−1 murine RNase inhibitor, 5 ng µl^−1 linear bjaI DNA template and 300 µM SAM and 80 µM IV-CoA, as indicated. Reactions were incubated for 5 h at 37 °C using a thermal cycler and then serially diluted in Milli-Q H2O. In total, 1 µl of the samples was added to lidded Corning 96-well plates containing 200 µl BjaI receiver cells (pSB1A3 BjaRS107R (CTG) at OD600 = 0.05). Cells were grown at 37 °C, 800 r.p.m. in a thermomixer with a heated lid for 4 h. OD600 and fluorescence were measured using a Tecan infinite M1000 plate reader (Ex, 488 nm; Em, 510 nm; bandwidth, 5 nm; z position, 23,179 µm and gain, 101).

[3] = test system: BjaRS107R (B0034|CTG) receiver cells; experiment: BjaR receiver cell AHSL dose-response (gfp reporter, plate reader)
Experimental: (§1) After four rounds of random mutagenesis, ON-selection and outgrowth, the OFF- and ON-states of 45 BjaR variants were screened by measuring their GFP fluorescence in the absence and presence of 1 nM IV-HSL. […] To understand the true impact of these mutations on receiver cell performance, the bjaRS107R (CTG) and bjaRWT (ACG) genes were cloned back into the reporter plasmid backbone without kanR.
(§2) The BjaR reporter plasmids were retransformed into E. coli XL10-Gold cells for each experiment. A single colony was used to inoculate 5 ml LB + Amp media and incubated at 37 °C, 225 r.p.m. overnight. Overnight cultures were diluted 1/250 or 1/500 in 5 ml M9 minimal media + Amp and incubated at 37 °C, 225 r.p.m. for 3 h and 45 min (until OD600 = ~0.075). Cultures were diluted down to OD600 = 0.05 with M9 minimal media + Amp, and 200 µl was added to wells of a 96-well plate containing 1 µl IV-HSL dissolved in DMSO or 1 µl BjaI CFPS reactions (IV-HSL concentrations obtained from serial dilution from 63.2 µM to 632 pM; final DMSO concentration = 0.5%). Cells were incubated at 37 °C, 800 r.p.m., in a thermomixer with a heated lid for 4 h. Fluorescence and OD600 were measured in a Tecan M1000 infinite plate reader (excitation, 488 nm; emission, 510 nm; bandwidth, 5 nm; gain, 101 and z position, 21,311 µm). The dose–response curves were fitted to the function indicated by Eq. (1), where a = maximal fluorescence output, b = basal fluorescence output, X = concentration of AHSL, GFP = fluorescence at the given condition, EC50 = AHSL at 50% maximal fluorescence output and h = hill coefficient. EC50 and h were derived using the nonlinear regression model based on Eq. (1), in MATLAB. A summary of the dose–response data is available in Supplementary Table 1.1 GFP=b+a−b/1+10^logEC50−X×h

[4] = test system: BjaRWT (B0034|ACG) receiver cells; experiment: as above
Experimental: as §1, §2

[5] = Escherichia coli, IV-HSL-activated gfp expression

In the case of CC(C)CC(=O)N[C@H]1CCOC1=O [IV-HSL, N-isovaleryl-L-homoserine lactone], the Mean normalised fluorescence [1] is reported as 190979, the Normalised fluorescence ([1]; Expt1-3) is reported as 175106 and 224036 and 173796 and the GFP ([1]; raw fluorescence ex 488/em 510 nm, Expt1-3) is reported as 33963 and 48451 and 56546. For the same compound, the GFP [2] was 45669 and 34133 and 41279, the Mean normalised fluorescence [2] was 170055 and the Normalised fluorescence [2] was 160035 and 169389 and 180741. The EC50 [3, 5] was 0.00044 ± 4e-05 µM, the GFP ([3]; Log([ASHL]) -6.5) was 37925 and 45810 and 36660 and the Mean normalised fluorescence ([3]; Log([ASHL]) -6.5) was 184153. For the same compound, the Normalised fluorescence ([3]; Log([ASHL]) -6.5) was 205027 and 170089 and 177344, the GFP ([3]; Log([ASHL]) -7) was 36122 and 43880 and 35340 and the Mean normalised fluorescence ([3]; Log([ASHL]) -7) was 165547. For the same compound, the Normalised fluorescence ([3]; Log([ASHL]) -7) was 185321 and 153601 and 157719, the GFP ([3]; Log([ASHL]) -7.5) was 35735 and 43795 and 35365 and the Mean normalised fluorescence ([3]; Log([ASHL]) -7.5) was 163310. For the same compound, the Normalised fluorescence ([3]; Log([ASHL]) -7.5) was 180638 and 151602 and 157690, the GFP ([3]; Log([ASHL]) -8) was 43912 and 35147 and 35505 and the Mean normalised fluorescence ([3]; Log([ASHL]) -8) was 161376. The Normalised fluorescence ([3]; Log([ASHL]) -8) was 150185 and 151700 and 182243, the GFP ([3]; Log([ASHL]) -8.5) was 44967 and 35318 and 37269 and the Mean normalised fluorescence ([3]; Log([ASHL]) -8.5) was 147580. For the same compound, the Normalised fluorescence ([3]; Log([ASHL]) -8.5) was 140866 and 144147 and 157727, the GFP ([3]; Log([ASHL]) -9) was 41968 and 33264 and 37415 and the Mean normalised fluorescence ([3]; Log([ASHL]) -9) was 127915. The Normalised fluorescence ([3]; Log([ASHL]) -9) was 124650 and 118620 and 140474, the GFP ([3]; Log([ASHL]) -9.5) was 22707 and 17817 and 19857 and the Mean normalised fluorescence ([3]; Log([ASHL]) -9.5) was 69560.7. For the same compound, the Normalised fluorescence ([3]; Log([ASHL]) -9.5) was 65949.9 and 69200.5 and 73531.6, the GFP ([3]; Log([ASHL]) -10) was 5295 and 3943 and 4882 and the Mean normalised fluorescence ([3]; Log([ASHL]) -10) was 15714.4. The Normalised fluorescence ([3]; Log([ASHL]) -10) was 15242.3 and 14666.4 and 17234.6, the GFP ([3]; Log([ASHL]) -10.5) was 1534 and 1232 and 1622 and the Mean normalised fluorescence ([3]; Log([ASHL]) -10.5) was 4749.74. The Normalised fluorescence ([3]; Log([ASHL]) -10.5) was 4305.92 and 4298.44 and 5644.87, the GFP ([3]; Log([ASHL]) -11) was 1122 and 884 and 1057 and the Mean normalised fluorescence ([3]; Log([ASHL]) -11) was 3184.98. The Normalised fluorescence ([3]; Log([ASHL]) -11) was 3030.92 and 3019.01 and 3505.01, the GFP ([3]; Log([ASHL]) -11.5) was 784 and 731 and 617 and the Mean normalised fluorescence ([3]; Log([ASHL]) -11.5) was 2156.19. For the same compound, the Normalised fluorescence ([3]; Log([ASHL]) -11.5) was 2102.93 and 2315.04 and 2050.6, the “fold activation of gfp expression” value ([3]; with vs without IV-HSL) was ~ 88 fold and the EC50 [4, 5] was 0.0223 ± 0.00259 µM. For the same compound, the GFP ([4]; Log([ASHL]) -6.5) was 41705 and 34148 and 40466, the Mean normalised fluorescence ([4]; Log([ASHL]) -6.5) was 152634 and the GFP ([4]; Log([ASHL]) -7) was 36443 and 32999 and 38903. The Mean normalised fluorescence ([4]; Log([ASHL]) -7) was 132540, the GFP ([4]; Log([ASHL]) -7.5) was 26920 and 30479 and 35001 and the Mean normalised fluorescence ([4]; Log([ASHL]) -7.5) was 111442. For the same compound, the GFP ([4]; Log([ASHL]) -8) was 23596 and 24216 and 12337, the Mean normalised fluorescence ([4]; Log([ASHL]) -8) was 70550.8 and the Mean normalised fluorescence ([4]; Log([ASHL]) -8.5) was 28355.7. For the same compound, the Mean normalised fluorescence ([4]; Log([ASHL]) -9) was 6838.99, the Mean normalised fluorescence ([4]; Log([ASHL]) -9.5) was 1496.47 and the GFP ([4]; Log([ASHL]) -10) was 268 and 258 and 219. The Mean normalised fluorescence ([4]; Log([ASHL]) -10) was 638.735, the GFP ([4]; Log([ASHL]) -10.5) was 198 and 199 and 217 and the Mean normalised fluorescence ([4]; Log([ASHL]) -10.5) was 483.533. The GFP ([4]; Log([ASHL]) -11) was 195 and 198 and 217, the Mean normalised fluorescence ([4]; Log([ASHL]) -11) was 487.314 and the GFP ([4]; Log([ASHL]) -11.5) was 199 and 225 and 193. The Mean normalised fluorescence ([4]; Log([ASHL]) -11.5) was 497.83 and the “fold activation of gfp expression” value ([4]; with vs without IV-HSL) was ~ 309 fold.
